Data as given in PubChem BioAssay (NCI).
Where “and” joins values, the source holds several entries; their conditions need not be identical. Equal values may be shown once.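 Protocol summary: plate cells (96-well), add compound at 5 concentrations, incubate 48 h, interpolate endpoints linearly. At the GI50, growth is halved. TGI: concentration producing complete growth inhibition.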

What was measured:
Assay in all cases: DTP human tumour cell line panel, 48 h
[1] = system: SN12C renal
[2] = system: DU-145 prostate
[3] = system: MALME-3M melanoma
[4] = system: NCI-H23 lung
[5] = system: A549 NSCLC
[6] = system: BT-549 breast
[7] = system: K-562 leukemia
[8] = system: KM12 colon
[9] = system: MDA-MB-435
[10] = system: HCC-2998 colon

| Compound | GI50 [1] [µM] | TGI [1] | GI50 [2] [µM] | TGI [2] | GI50 [3] [µM] | TGI [3] | TGI [4] | GI50 [5] [µM] | TGI [5] | GI50 [6] [µM] | TGI [6] | GI50 [7] [µM] | TGI [7] | GI50 [8] [µM] | TGI [8] | GI50 [9] [µM] | TGI [9] [µM] | GI50 [10] [µM] | TGI [10] | GI50 [4] [µM] |
| --- | --- | --- | --- | --- | --- | --- | --- | --- | --- | --- | --- | --- | --- | --- | --- | --- | --- | --- | --- | --- |
| COc1cc2c3cc1Oc1c(OC)c(OC)cc4c1C(Cc1ccc(O)c(c1)Oc1ccc(cc1)CC3N(C)CC2)N(C)CC4 (stereo not drawn) | 23.4 | 47.1 µM and > 100 µM | 18.2 | > 100 µM and 84.4 µM | 8.17 | > 100 µM and 23.8 µM | 31.1 µM and > 100 µM | 14.4 | 81.7 µM and 48.8 µM | 14.7 | 60.1 µM and 35.6 µM | 2.04 | > 100 µM and 12.9 µM | 14.2 | 65.8 µM and 31.8 µM | 6.7 | 19.8 | 10.9 | 37.3 µM and 32.1 µM | – |
| C[As](C)SC1OCC(O)C(O)C1O (stereo not drawn) | 0.226 | 0.868 µM | 0.122 | 0.824 µM | 0.069 | 0.366 µM | 1.76 µM | 1.63 | > 33.7 µM | 0.363 | 1.5 µM | 0.0495 | 0.378 µM | 0.387 | 3.83 µM | 0.13 | 1.32 | 0.224 | 0.466 µM | 0.281 |
| COc1ccccc1NC(=O)C1=C(C)NC(C)=C(C(=O)Nc2ccccc2OC)C1c1ccco1 | – | 89.9 µM | – | > 100 µM | – | > 100 µM | 32.4 µM | – | > 100 µM | – | > 100 µM | – | > 63.5 µM | – | > 38.4 µM | – | 19.8 | – | 40.7 µM | – |
| NC1=NCN(C2OC(CO)C(O)C2O)C(=O)N1 (stereo not drawn) | – | 1680 µM | – | 1330 µM | – | 128 µM | 1500 µM | – | 1080 µM | – | 765 µM | – | 788 µM | – | 674 µM | – | 154 | – | 1190 µM | – |
| COc1ccc(-c2c(N)noc2-c2cc(OC)c3c(c2)OCCO3)cc1 | 0.0438 | > 100 µM | 0.0202 | 0.193 µM | 23.6 | > 100 µM | – | 0.0101 | > 41.6 µM | 0.0285 | 1.35 µM | < 0.01 | > 100 µM | < 0.01 | 3.8 µM | < 0.01 | 0.0102 | 0.0173 | 0.902 µM | < 0.014 |
